Patent US9714247B2, “Multiple kinase pathway inhibitors” (Mannkind Corporation, priority 2012, dated 2017)
pEC50, pIC50: −log10 of the molar value. Like-named read-outs stand apart in the source and are kept apart here.

What was measured:
Lyn [1] = molecular target: T1, Lyn (Homo sapiens (Human), UniProt P07948); settings: read-out: Lyn IC50
[2] = system: phosphorylation of SFKs in Ramos cells; experiment: SFK phosphorylation (Tyr 416) by flow cytometry; type: cell-based, human; settings: Homo sapiens, 0.3 uM, flow cytometry, SFK phosphorylated at Tyr 416, read-out: pSRC % inhibition
Experimental: Ramos cell lysates from stimulated and unstimulated cells were analyzed for the levels of phosphorylated SRC family members. As described in Example 82 (above), cells were pretreated for 2 hours with an amino naphthyridinones and then stimulated with anti-IgM antibody and H2O2, protein lysates were prepared, quantified and used for Western blotting. A commercially available antibody that detects Src phosphorylated at Tyr 416 (Cell Signalling) and may cross-react with other Src family members such as Lyn, Fyn, Lck, Yes and Hck when phosphorylated at equivalent sites was used for Western blot analysis. The molecular weights of SFK family members are quite similar (in the 55-60 kDa range) and different family members cannot be resolved by the conditions used for the Western blot. […] The procedure can be similarly adapted for flow cytometric analysis as with the PLC-γ2 assay in Example 82. Ramos cells were incubated with Compound 1 for 2 hrs in RPMI media with 5% FBS prior to stimulation stimulated with H2O2/anti-IgM/F(Ab) for 10 minutes. Cells were evaluated by FACS analysis using anti-pSRC antibody and FITC-conjugated goat anti-rabbit secondary antibody following overnight storage at 4° C. in BD perm/wash buffer.
Ramos cells were prepared for flow cytometry analysis as described in example 82, and stained with a commercially available antibody that detects SFK phosphorylated at Tyr 416, followed by Alexa Fluor 488 conjugated secondary antibody. […] Thus amino naphthyridinones are useful in the inhibition of the phosphorylation of SFKs.

DoHH2 [3] = experiment: Apoptosis by flow cytometry (Annexin V / 7AAD); type: cell-based, human; settings: Table 6; for Percent Apoptosis at 2 uM: DOHH2, 2 uM; for Percent Apoptosis at 5 uM: DOHH2, 5 uM
Excerpt: Activation of Tec family kinases including BTK, and/or Src kinase family members, regulates cell survival and cell death in normal B cells, lymphomas, and solid tumors. Apoptosis is a programmed cell death characterized by specific changes in cell morphology. […] Staurosporine was used as a positive control for apoptosis. […] Table 6 illustrates that several amino naphthyridinones induce significant apoptosis in DoHH2 cells.

BTK = BTK (Homo sapiens (Human), UniProt Q06187)
Sequence of BTK (Q06187 whole entry): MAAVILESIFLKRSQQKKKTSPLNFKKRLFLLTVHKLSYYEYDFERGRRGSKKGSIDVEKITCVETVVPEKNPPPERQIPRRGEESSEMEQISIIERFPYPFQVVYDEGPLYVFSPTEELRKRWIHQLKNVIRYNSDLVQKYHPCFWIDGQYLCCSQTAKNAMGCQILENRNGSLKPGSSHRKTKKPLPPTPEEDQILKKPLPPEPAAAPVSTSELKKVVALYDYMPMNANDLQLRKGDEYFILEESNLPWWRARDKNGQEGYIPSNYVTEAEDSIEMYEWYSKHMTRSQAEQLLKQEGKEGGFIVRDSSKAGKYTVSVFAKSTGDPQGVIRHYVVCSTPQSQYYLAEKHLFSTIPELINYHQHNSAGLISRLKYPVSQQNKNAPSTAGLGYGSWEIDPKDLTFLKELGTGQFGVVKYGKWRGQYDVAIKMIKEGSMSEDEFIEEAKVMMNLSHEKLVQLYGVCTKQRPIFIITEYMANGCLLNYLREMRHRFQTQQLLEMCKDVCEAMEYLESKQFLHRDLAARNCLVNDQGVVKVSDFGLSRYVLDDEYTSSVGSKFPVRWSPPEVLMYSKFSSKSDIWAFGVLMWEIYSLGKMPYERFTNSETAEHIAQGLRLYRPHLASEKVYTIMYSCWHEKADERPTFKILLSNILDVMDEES

Lyn [4] = molecular target: T1, Lyn; experiment: biochemical
Ramos = experiment: CellTiter-Glo proliferation/viability assay; type: cell-based, human; settings: Homo sapiens, Ramos, read-out: Ramos EC50
DoHH2 cells = settings: treated 24 hours
DoHH2 [5] = experiment: CellTiter-Glo proliferation/viability assay; type: cell-based, human; settings: Homo sapiens, DOHH-2
[6] = system: PLCγ2 phosphorylation in Ramos cells; experiment: PLCγ2 phosphorylation by flow cytometry; type: cell-based, human; settings: Homo sapiens, flow cytometry; for inhibition at 0.3 µM: anti-phospho PLCγ2 (Tyr759), read-out: pPLCγ % inhibition; for pEC50: anti-phospho PLCγ2 (Tyr1217), four concentrations, read-out: Inhibition of phosphorylation of PLC-γ2 EC50
Experimental: Ramos cells were cultured in RPMI 1640 media with 10% FBS and were starved overnight (18 h) in 1% FBS containing media and on the next day pretreated with inhibitor for 2 h before stimulation. Cells were stimulated to induce BTK network dependent signal transduction pathways using mouse anti-human IgM (final concentration 10 ug/ml; Invitrogen) antibodies and 3.3 mM H2O2 mixture for 2 minutes followed by F(Ab) fragment that cross-linked the anti-IgM antibody (final concentration 10 ug/ml), and 3.3 mM H2O2 for 8 minutes. Cell lysates were prepared in lysis buffer containing protease and phosphatase inhibitors, quantified using the BCA protein assay kit (Pierce) and used for Western blotting. Antibodies specifically targeted to the molecules of interest, PLCγ2 phosphorylated at Tyr1217 and total PLCγ2, (Cell Signaling Technology) were used in a standard Western blotting procedure.
PLCγ2 phosphorylation was also assessed by flow cytometry. Cells were similarly stimulated and following stimulation, Cytofix buffer (Becton Dickinson) was added, cells were centrifuged and the cell pellets incubated on ice with Phosflow perm buffer III (Becton Dickinson). These cell pellets were washed with Perm/Wash buffer (Becton Dickinson); resuspended and labeled for flow cytometry analysis in a staining mixture containing Perm/Wash buffer and PE-labeled anti-phosphoPCLγa2 (Tyr1217) antibody (Becton Dickinson). The samples were washed with Perm/Wash buffer and analyzed on a FACS Calibur flow cytometer using CellQuest Pro software. As mentioned for the Western blot experiments, phosphorylation of PLCγ2 at Tyr1217 along with Tyr753, Tyr759 and Tyr1197 is correlated with increased PLCγ2 activity. The readout for BTK network signaling was inhibition of phosphorylation of PLCγ2. Cells were gated to exclude dead or dying cells. Fluorescence signals from the antibody staining were plotted in logarithmic units and data was analyzed using Cellquest Pro software. […] An ED50 was calculated based on the geometric mean of fluorescence intensity observed for treatment for four different concentrations of the inhibitors (see Table 7 and FIG. 6). […] Thus treatment with amino naphthyridinones inhibits PLCγ2 phosphorylation consistent with inhibition of BTK and/or LYN activity.
Following stimulation, cells were prepared for analysis by flow cytometry as described above. In short, cells were fixed and permeabilized using Cytofix buffer, Phosflow perm buffer and Perm/Wash buffer (Becton Dickinson). The cells were stained with PE-labeled anti-phosphoPCLγ2 (Tyr759) antibody (Becton Dickinson) and analyzed on a FACS Calibur flow cytometer using CellQuest Pro software. […] Thus aminonaphthyridinones are useful for the indirect inhibition of PLCγ2 phosphorylation.

Src [7] = molecular target: T2, Src (Homo sapiens (Human), UniProt P12931); settings: read-out: Src IC50
T2 sequence (P12931 whole entry, looked up): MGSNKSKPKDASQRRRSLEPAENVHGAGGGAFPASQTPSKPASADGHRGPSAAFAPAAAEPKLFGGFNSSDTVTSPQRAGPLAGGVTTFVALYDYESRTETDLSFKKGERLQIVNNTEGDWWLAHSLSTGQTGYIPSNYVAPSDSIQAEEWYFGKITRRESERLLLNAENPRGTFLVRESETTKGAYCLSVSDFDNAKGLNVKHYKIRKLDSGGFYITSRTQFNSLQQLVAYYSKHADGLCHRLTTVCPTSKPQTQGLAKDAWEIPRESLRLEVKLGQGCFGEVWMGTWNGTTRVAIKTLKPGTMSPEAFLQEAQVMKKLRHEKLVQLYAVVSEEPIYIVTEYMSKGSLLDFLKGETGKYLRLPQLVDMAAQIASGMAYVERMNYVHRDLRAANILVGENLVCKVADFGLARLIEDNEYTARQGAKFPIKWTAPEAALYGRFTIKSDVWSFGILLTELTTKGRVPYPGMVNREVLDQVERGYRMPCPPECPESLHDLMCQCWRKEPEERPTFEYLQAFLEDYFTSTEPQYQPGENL

Src [8] = molecular target: T2, Src; experiment: biochemical
[9] = Table 4, DoHH2 cells, read-out: EC50 (Proliferation)

T1 sequence (P07948 whole entry): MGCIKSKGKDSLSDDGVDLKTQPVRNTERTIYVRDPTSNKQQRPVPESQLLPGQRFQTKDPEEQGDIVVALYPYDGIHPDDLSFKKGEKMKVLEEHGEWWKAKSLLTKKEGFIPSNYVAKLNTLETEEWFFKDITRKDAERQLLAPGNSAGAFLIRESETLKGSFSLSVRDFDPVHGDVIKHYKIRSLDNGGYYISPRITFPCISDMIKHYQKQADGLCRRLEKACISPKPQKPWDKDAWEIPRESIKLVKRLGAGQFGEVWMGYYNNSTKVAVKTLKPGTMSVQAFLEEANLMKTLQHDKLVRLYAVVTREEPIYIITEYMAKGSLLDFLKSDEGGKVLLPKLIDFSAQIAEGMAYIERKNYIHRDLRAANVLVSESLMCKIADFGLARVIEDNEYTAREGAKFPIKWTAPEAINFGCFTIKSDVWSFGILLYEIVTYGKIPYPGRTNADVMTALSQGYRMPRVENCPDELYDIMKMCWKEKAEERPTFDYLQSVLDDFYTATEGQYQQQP

CCN(CC)CCOc1ccc(Nc2cc3c(cn2)cc(-c2ccccc2)c(=O)n3C2CCN(C)CC2)nc1 [Compound 16, 7-((5-(2-(diethylamino)ethoxy)pyridin-2-yl)amino)-1-(1-methylpiperidin-4-yl)-3-phenyl-1,6-naphthyridin-2(1H)-one]
pIC50 (Lyn [1]): 6.00 to 7.00 | inhibition at 0.3 µM [2]: -1% | Percent Apoptosis at 2 uM (DoHH2 [3]): 32.57% | Percent Apoptosis at 5 uM (DoHH2 [3]): 58.99% | pIC50 (BTK): 6.00 to 7.00 | pIC50 (BTK; read-out: BTK IC50): 6.00 to 7.00 | pIC50 (Lyn [4]): 6.00 to 7.00 | pEC50 (Ramos; 48 hrs): 5.00 to 6.00 | Effect on Cell Cycle (DoHH2 cells): G1 Arrest | pEC50 (DoHH2 [5]; 48 hrs, read-out: DoHH2 EC50): > 6.00 | pEC50 (DoHH2 [5]; [9]): > 6.00 | inhibition at 0.3 µM [6]: 46% | pIC50 (Src [7]): > 7.00

CCN(CC)CCOc1ccc(Nc2cc3c(cn2)cc(-c2ccccc2)c(=O)n3C(C)C)nc1 [Compound 22, 7-(5-(2-(diethylamino)ethoxy)pyridin-2-ylamino)-1-isopropyl-3-phenyl-1,6-naphthyridin-2(1H)-one]
Percent Apoptosis at 2 uM (DoHH2 [3]): 21.68% | Percent Apoptosis at 5 uM (DoHH2 [3]): 25.8% | pIC50 (BTK; read-out: BTK IC50): > 7.00 | pIC50 (Lyn [4]; Lyn IC50): 6.00 to 7.00 | pEC50 (Ramos; 48 h): 5.00 to 6.00 | Effect on Cell Cycle (DoHH2 cells): G1 Arrest | pEC50 (DoHH2 [5]; 48 hrs, read-out: DoHH2 EC50): > 6.00 | pEC50 (DoHH2 [5]; [9]): > 6.00 | pIC50 (Src [8]): 6.00 to 7.00

CCN(CC)CCOc1ccc(Nc2cc3c(cn2)cc(-c2ccccc2)c(=O)n3C2CCCC2)nc1 [Compound 23, 1-cyclopentyl-7-(5-(2-(diethylamino)ethoxy)pyridin-2-ylamino)-3-phenyl-1,6-naphthyridin-2(1H)-one]
inhibition at 0.3 µM [2]: 5% | pIC50 (Lyn [4]): 6.00 to 7.00 | pEC50 (Ramos; 48 h): 5.00 to 6.00 | Effect on Cell Cycle (DoHH2 cells): G1 Arrest | pEC50 (DoHH2 [5]; 48 hrs, read-out: DoHH2 EC50): > 6.00 | pEC50 (DoHH2 [5]; [9]): > 6.00 | pIC50 (Src [8]): 6.00 to 7.00 | inhibition at 0.3 µM [6]: 32%

CCN(CC)CCOc1ccc(Nc2cc3c(cn2)cc(-c2ccccc2)c(=O)n3CCOC)nc1 [Compound 24, 7-(5-(2-(diethylamino)ethoxy)pyridin-2-ylamino)-1-(2-methoxyethyl)-3-phenyl-1,6-naphthyridin-2(1H)-one]
pIC50 (Lyn [1]): > 7.00 | Percent Apoptosis at 2 uM (DoHH2 [3]): 34.76% | Percent Apoptosis at 5 uM (DoHH2 [3]): 46.4% | pIC50 (BTK; read-out: BTK IC50): > 7.00 | pEC50 (Ramos; 48 hrs): 5.00 to 6.00 | pEC50 (DoHH2 [5]; 48 hrs, read-out: DoHH2 EC50): > 6.00 | pIC50 (Src [7]): > 7.00

CCN(CC)CCOc1ccc(Nc2cc3c(cn2)cc(-c2ccccc2)c(=O)n3C2CCC2)nc1 [Compound 25, 1-cyclobutyl-7-(5-(2-(diethylamino)ethoxy)pyridin-2-ylamino)-3-phenyl-1,6-naphthyridin-2(1H)-one]
inhibition at 0.3 µM [2]: 26% | Percent Apoptosis at 2 uM (DoHH2 [3]): 26.94% | Percent Apoptosis at 5 uM (DoHH2 [3]): 20.29% | pIC50 (Lyn [4]): 5.30 to 6.00 | pEC50 (Ramos; 48 h): 5.00 to 6.00 | Effect on Cell Cycle (DoHH2 cells): G1 Arrest | pEC50 (DoHH2 [5]; 48 hrs, read-out: DoHH2 EC50): > 6.00 | pEC50 (DoHH2 [5]; [9]): > 6.00 | pIC50 (Src [8]): 5.30 to 6.00 | inhibition at 0.3 µM [6]: 61% | pEC50 [6]: 6.55

CCN(CC)CCOc1ccc(Nc2cc3c(cn2)cc(-c2ccccc2)c(=O)n3C2CC2)nc1 [Compound 27, 1-cyclopropyl-7-(5-(2-(diethylamino)ethoxy)pyridin-2-ylamino)-3-phenyl-1,6-naphthyridin-2(1H)-one]
Percent Apoptosis at 2 uM (DoHH2 [3]): 37.05% | Percent Apoptosis at 5 uM (DoHH2 [3]): 54.19% | pIC50 (BTK; read-out: BTK IC50): > 7.00 | pIC50 (Lyn [4]): 6.00 to 7.00 | pEC50 (Ramos; 48 hrs): 5.00 to 6.00 | Effect on Cell Cycle (DoHH2 cells): G1 Arrest | pEC50 (DoHH2 [5]; 48 hrs, read-out: DoHH2 EC50): > 6.00 | pEC50 (DoHH2 [5]; [9]): > 6.00 | pIC50 (Src [8]): 6.00 to 7.00

CCN(CC)CCOc1ccc(Nc2cc3c(cn2)cc(C(C)C)c(=O)n3C(C)C)nc1 [Compound 34, 7-[5-(2-Diethylamino-ethoxy)-pyridin-2-ylamino]-1,3-diisopropyl-1H-[1,6]naphthyridin-2-one]
pIC50 (Lyn [1]): > 7.00 | Percent Apoptosis at 2 uM (DoHH2 [3]): 19.54% | Percent Apoptosis at 5 uM (DoHH2 [3]): 46.27% | pEC50 (Ramos; 48 h): 5.00 to 6.00 | Effect on Cell Cycle (DoHH2 cells): No Arrest | pIC50 (Src [7]): > 7.00

CCn1c(=O)c(-c2ccccc2)cc2cnc(Nc3ccc(N4CCN(C)CC4)cn3)cc21 [Compound 43, 1-Ethyl-7-[5-(4-methyl-piperazin-1-yl)-pyridin-2-ylamino]-3-phenyl-1H-[1,6]naphthyridin-2-one]
pIC50 (Lyn [1]): > 7.00 | Percent Apoptosis at 2 uM (DoHH2 [3]): 27.26% | Percent Apoptosis at 5 uM (DoHH2 [3]): 29.38% | pEC50 (Ramos; 48 hrs): 5.00 to 6.00 | pEC50 (DoHH2 [5]; 48 hrs, read-out: DoHH2 EC50): > 6.00 | pEC50 [6]: 6.72 | pIC50 (Src [7]): > 7.00

CCn1c(=O)c(-c2c(F)cccc2F)cc2cnc(Nc3ccc(F)cn3)cc21 [Compound 75, 3-(2,6-difluorophenyl)-1-ethyl-7-((5-fluoropyridin-2-yl)amino)-1,6-naphthyri-din-2 (1H)-one]
pIC50 (Lyn [1]): > 7.00 | Percent Apoptosis at 2 uM (DoHH2 [3]): 35.66% | Percent Apoptosis at 5 uM (DoHH2 [3]): 39.47% | pIC50 (BTK; read-out: BTK IC50): > 7.00 | pEC50 (Ramos; 48 h): 5.00 to 6.00 | Effect on Cell Cycle (DoHH2 cells): G1 Arrest | pEC50 (DoHH2 [5]; 48 hrs, read-out: DoHH2 EC50): > 6.00 | pEC50 (DoHH2 [5]; [9]): > 6.00 | pIC50 (Src [8]): 6.00 to 7.00

CCN(CC)CCOc1ccc(Nc2cc3c(cn2)cc(-c2ccccc2C(F)(F)F)c(=O)n3CC)nc1 [Compound 107, 7-((5-(2-(diethylamino)ethoxy)pyridin-2-yl)amino)-1-ethyl-3-(2-(trifluoromethyl)phenyl)-1,6-naphthyridin-2(1H)-one]
inhibition at 0.3 µM [2]: 28% | pIC50 (BTK; read-out: BTK IC50): > 7.00 | pIC50 (Lyn [4]; Lyn IC50): 6.00 to 7.00 | pEC50 (Ramos; 48 h): < 5.00 | pEC50 (DoHH2 [5]; 48 hrs, read-out: DoHH2 EC50): > 6.00 | inhibition at 0.3 µM [6]: 48% | pIC50 (Src [7]): > 7.00
